According to patent US7862798B2, “Vitamin-targeted imaging agents” (Endocyte, Inc., priority 2002, dated 2011):
Each block holds one compound with its values, some of them ahead of it.

Key:
FR-positive KB tumors [1] = assay: Tissue distribution, KB tumor model (Example 16, Table 5); type: in vivo, nude mice; conditions: about 20-fold excess of free folate
Protocol: The protocols used in this example are similar to those described in Example 11. The ability of ^99mTc-EC11 (peptide-A1), ^99mTc-EC13 (peptide-A3), and ^99mTc-EC14 (peptide-A2) to target tumors in vivo was assessed using the FR-positive KB tumor model.
(§1) FR-positive KB tumor cells (0.25×10^6 per animal) were inoculated subcutaneously in the intracapsular region. Fourteen days after tumor cell inoculation, the animals (n=4/group) were injected intravenously with ^99mTc-EC11, ^99mTc-EC13, or ^99mTc-EC14 at the doses (about 12 μg/kg) of the conjugates shown in Table 5 below. Stocks of ^99mTc-EC11, ^99mTc-EC13, and ^99mTc-EC14 solutions were prepared on the day of use as described above. About a 20-fold excess of free folate (about 200 μg/kg) was co-administered to control animals (n=4/group). […] Selected tissues were removed, weighed, and counted in an automatic gamma counter to determine ^99mTc distribution. Uptake of the radiopharmaceutical in terms of percentage injected dose of wet weight tissue (% ID/g) was calculated by reference to standards prepared from dilutions of the injected preparation.

FR-positive M109 tumors = assay: Tissue distribution, subcutaneous M109 tumors (Example 11)
Protocol: The ability of ^99mTc-EC20 to target tumors in vivo was assessed using a FR-positive M109 model.
Four to five week-old mice (Balb/c strain) were purchased from Harlan Sprague Dawley, Inc. (Indianapolis, Ind.) and were maintained on a folate-free diet for a total of three weeks prior to the experiment. Syngeneic, FR-positive M109 tumor cells (1×10^6 per animal) were inoculated in the subcutis of the right axilla two weeks prior to the experiment.
Animals received an approximate 40 μmol/kg i.v. dose of test article in 100 μL volume via a lateral tail vein during brief diethyl ether anesthesia. Four hours post-injection, animals were sacrificed by CO2 asphyxiation, and dissected. Selected tissues were removed, weighed, and counted to determine ^99mTc distribution. CPM values were decay-corrected, and results were tabulated as % injected dose per gram of wet weight tissue.

[2] = target: T1, folate receptor (FR) on FR-positive KB cells (Homo sapiens, UniProt P15328); assay: Relative affinity assay (blocking of 3H-folic acid binding to KB cells); conditions: for IC50: 100 nM 3H-folic acid, KB cells, 15 min on ice, triplicate; for RA (relative affinity): inverse molar ratio to displace 50% of 3H-folic acid, folic acid set to 1
T1 construct: FR-positive KB cells were gently trypsinized; endogenous in cells; host or cells: KB cells
Protocol: The relative affinity of various folate derivatives was determined according to the method described by Westerhoff et al. (Mol. Pharm., 48: 459-471 (1995)) with slight modification. Briefly, FR-positive KB cells were gently trypsinized in 0.25% trypsin/PBS at room temperature for 3 minutes and then diluted in FFRPMI/HIFCS. Following a 5 min 800×g spin and one PBS wash, the final cell pellet was suspended in FFRPMI 1640 (no serum). […] Samples were centrifuged at 10,000×g for 5 min, cell pellets were suspended in buffer, were transferred to individual vials containing 5 mL of scintillation cocktail, and were then counted for radioactivity.
Likewise, values lower than unity reflect weaker affinity, and values higher than unity reflect stronger affinity.
Following a 15-minute incubation at 4° C., cells were rinsed free of unbound material and counted for residual cell-associated radioactivity.

[3] = target: T2, folate receptor (FR) on KB cells (Homo sapiens, UniProt P15328); assay: Concentration-dependent cell uptake (Scatchard analysis); type: binding; conditions: 2 hours at 37° C., read-out: KD of binding (Scatchard analysis)
T2 construct: FR-positive KB cells were gently trypsinized; endogenous in cells; host or cells: KB cells
Protocol: KB cells were seeded in 12-well Falcon plates and allowed to form sub-confluent monolayers overnight. Following one rinse with 1 mL of fresh FERPMI/HIFCS, each well received 1 mL of FFRPMI/HIFCS containing increasing concentrations of ^99mTc-EC20. Cells were incubated for 2 hours at 37° C. and then rinsed four times with 1 mL of ice-cold PBS, pH 7.4. The monolayers were dissolved in 0.5 mL of PBS, pH 7.4 containing 1% sodium dodecyl sulfate for 15 min at room temperature and then counted for radioactivity using a Packard gamma counter. Protein content was determined as described above, and final tabulated values were expressed in terms of molecules of EC20 per cell.
The particular KB cells used were determined to bind a maximum of four million molecules of the folate radiopharmaceutical per cell.
This HPLC-purified radiolabeled material (Peak B material) was collected and then added to cultured KB cells.

FR-positive KB tumors [4] = assay: Tissue distribution of 99mTc-EC53, KB tumors (Table 6); type: in vivo
Protocol: as §1
Similar results (see Table 6 below) were obtained with ^99mTc-EC53 (the all D-enantiomer of EC20) using similar protocols except that the dose of ^99mTc-EC53 was about 50 μg/kg and about a 100-fold excess of free folate or cold EC53 was used. […] The accumulation was blocked by co-administration of free folate.

KB tumor = conditions: reported previously; cited from earlier work
[5] = 4 hr post i.v., + Folic acid (100 equivalents)
[6] = 4 hr post intravenous injection

T1 sequence (P15328 25-234): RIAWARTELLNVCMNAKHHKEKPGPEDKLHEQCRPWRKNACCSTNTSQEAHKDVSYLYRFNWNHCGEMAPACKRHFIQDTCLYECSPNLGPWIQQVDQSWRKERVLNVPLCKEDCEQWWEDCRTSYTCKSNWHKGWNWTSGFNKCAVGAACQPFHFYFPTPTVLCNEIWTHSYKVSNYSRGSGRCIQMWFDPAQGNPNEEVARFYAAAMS
T2 sequence (P15328 25-234): as above

- accumulation in FR-positive KB tumors and kidneys on co-administration of free folate (FR-positive KB tumors [1]): blocked
- Tumor/Blood (FR-positive M109 tumors; [5]): 2.00 ± 2.00
- Tumor/Blood (FR-positive M109 tumors; [6]): 34.1 ± 7.41
Compound: Nc1nc2ncc(CNc3ccc(C(=O)N[C@@H](CCC(=O)N[C@H](CCC(=O)NC[C@@H]4[NH2+][99Tc-]56(=[O])[S]C[C@@H](C(=O)O)[N]5C(=O)[C@H](CC(=O)O)[N]6C4=O)C(=O)O)C(=O)O)cc3)nc2c(=O)[nH]1 [^99mTc-EC14]
- Blood (FR-positive M109 tumors; [5]): 0.19 ± 0.07 % Injected Dose per Gram Tissue
- Heart (FR-positive M109 tumors; [5]): 0.08 ± 0.01 % Injected Dose per Gram Tissue
- Intestine (FR-positive M109 tumors; [5]): 0.32 ± 0.11 % Injected Dose per Gram Tissue
- Kidney (FR-positive M109 tumors; [5]): 5.94 ± 0.52 % Injected Dose per Gram Tissue
- Liver (FR-positive M109 tumors; [5]): 1.37 ± 0.98 % Injected Dose per Gram Tissue
- Lung (FR-positive M109 tumors; [5]): 0.15 ± 0.04 % Injected Dose per Gram Tissue
- Muscle (FR-positive M109 tumors; [5]): 0.09 ± 0.11 % Injected Dose per Gram Tissue
- Spleen (FR-positive M109 tumors; [5]): 2.99 ± 1.43 % Injected Dose per Gram Tissue
- Stomach (FR-positive M109 tumors; [5]): 0.10 ± 0.03 % Injected Dose per Gram Tissue
- Tumor (FR-positive M109 tumors; [5]): 0.43 ± 0.52 % Injected Dose per Gram Tissue
- Blood (FR-positive M109 tumors; [6]): 0.31 ± 0.14 % Injected Dose per Gram Tissue
- Heart (FR-positive M109 tumors; [6]): 2.39 ± 0.64 % Injected Dose per Gram Tissue
- Intestine (FR-positive M109 tumors; [6]): 1.70 ± 0.55 % Injected Dose per Gram Tissue
- Kidney (FR-positive M109 tumors; [6]): 98.0 ± 40.7 % Injected Dose per Gram Tissue
- Liver (FR-positive M109 tumors; [6]): 3.44 ± 2.19 % Injected Dose per Gram Tissue
- Lung (FR-positive M109 tumors; [6]): 2.08 ± 0.40 % Injected Dose per Gram Tissue
- Muscle (FR-positive M109 tumors; [6]): 0.99 ± 0.28 % Injected Dose per Gram Tissue
- Spleen (FR-positive M109 tumors; [6]): 2.68 ± 2.49 % Injected Dose per Gram Tissue
- Stomach (FR-positive M109 tumors; [6]): 1.47 ± 0.58 % Injected Dose per Gram Tissue

- IC50 [2]: 128 nM
- RA (relative affinity) [2]: 0.92
- Kd [3]: ~3 nM
Compound: Nc1nc2ncc(CNc3ccc(C(=O)NC(CCC(=O)NCC(N)C(=O)NC(CC(=O)O)C(=O)NC(CS)C(=O)O)C(=O)O)cc3)nc2c(=O)[nH]1 (stereo not shown) [EC20]

More lines, now with the values behind:

Compound: Nc1nc2ncc(CNc3ccc(C(=O)N[C@H](CCC(=O)NC[C@@H]4[NH2+][Re-]56(=[O])[S]C[C@@H](C(=O)O)[N]5C(=O)[C@H](CC(=O)O)[N]6C4=O)C(=O)O)cc3)nc2c(=O)[nH]1 (single isomer, unassigned; isomer 1) [EC20:Re isomer 1]
- IC50 [2]: 83 nM
- RA (relative affinity) [2]: 1.42
- RA (relative affinity) ([2]; listed as Re-EC20 isomer A): 1.42

Compound: Nc1nc2ncc(CNc3ccc(C(=O)N[C@H](CCC(=O)NC[C@H]4[NH2+][99Tc-]56(=[O])[S]C[C@H](C(=O)O)[N]5C(=O)[C@@H](CC(=O)O)[N]6C4=O)C(=O)O)cc3)nc2c(=O)[nH]1 [^99mTc-EC53]
- Tumor/Blood, Average (FR-positive KB tumors [4]; 99mTc-EC53 alone): 31.4
- Tumor/Kidney, Average (FR-positive KB tumors [4]; 99mTc-EC53 alone): 0.2
- Tumor/Liver, Average (FR-positive KB tumors [4]; 99mTc-EC53 alone): 3.4
- Tumor/Muscle, Average (FR-positive KB tumors [4]; 99mTc-EC53 alone): 17.1
- Tumor, Average (FR-positive KB tumors [4]; 99mTc-EC53 alone, 50.0 ug/kg): 11.77 % ID/g
- blood, Average (FR-positive KB tumors [4]; 99mTc-EC53 alone, 50.0 ug/kg): 0.38 % ID/g
- heart, Average (FR-positive KB tumors [4]; 99mTc-EC53 alone, 50.0 ug/kg): 1.09 % ID/g
- intestine, Average (FR-positive KB tumors [4]; 99mTc-EC53 alone, 50.0 ug/kg): 3.53 % ID/g
- kidney, Average (FR-positive KB tumors [4]; 99mTc-EC53 alone, 50.0 ug/kg): 77.99 % ID/g
- liver, Average (FR-positive KB tumors [4]; 99mTc-EC53 alone, 50.0 ug/kg): 3.86 % ID/g
- lung, Average (FR-positive KB tumors [4]; 99mTc-EC53 alone, 50.0 ug/kg): 0.89 % ID/g
- muscle, Average (FR-positive KB tumors [4]; 99mTc-EC53 alone, 50.0 ug/kg): 0.76 % ID/g
- spleen, Average (FR-positive KB tumors [4]; 99mTc-EC53 alone, 50.0 ug/kg): 0.67 % ID/g
- stomach, Average (FR-positive KB tumors [4]; 99mTc-EC53 alone, 50.0 ug/kg): 1.04 % ID/g
- accumulation in FR-positive KB tumors and kidneys on co-administration of free folate (FR-positive KB tumors [4]; about a 100-fold excess of free folate): blocked
- Tumor/Blood, Average (FR-positive KB tumors [4]; plus EC53 (cold)): 4.5
- Tumor/Kidney, Average (FR-positive KB tumors [4]; plus EC53 (cold)): 0.14
- Tumor/Liver, Average (FR-positive KB tumors [4]; plus EC53 (cold)): 0.3
- Tumor/Muscle, Average (FR-positive KB tumors [4]; plus EC53 (cold)): 8.5
- Tumor/Blood, Average (FR-positive KB tumors [4]; plus Folic Acid): 2.2
- Tumor/Kidney, Average (FR-positive KB tumors [4]; plus Folic Acid): 0.07
- Tumor/Liver, Average (FR-positive KB tumors [4]; plus Folic Acid): 0.1
- Tumor/Muscle, Average (FR-positive KB tumors [4]; plus Folic Acid): 5.2

Compound: ^99mTc-12-amino-3,3,9,9-tetramethyl-5-oxa-4,8 diaza-2,10-dodecanedinoe dioxime (OXA) folate conjugate
- tracer uptake in a KB tumor (KB tumor): ~7 % ID/g

Compound: Nc1nc2ncc(CNc3ccc(C(=O)N[C@H](CCC(=O)NC[C@@H]4[NH2+][Re-]56(=[O])[S]C[C@@H](C(=O)O)[N]5C(=O)[C@H](CC(=O)O)[N]6C4=O)C(=O)O)cc3)nc2c(=O)[nH]1 (single isomer, unassigned; isomer 2) [EC20:Re isomer 2]
- IC50 [2]: 86 nM
- RA (relative affinity) [2]: 1.37
- RA (relative affinity) ([2]; listed as Re-EC20 isomer B): 1.37
